Measured values: the NIST ThermoML archive (doi:10.1016/j.jct.2013.01.009)
Values joined by “and” are separate entries in the source; they are usually repeats but may differ in a detail not shown here. Identical values can stand only once.

Assays:
[1] = Molar enthalpy of transition or fusion; conditions: Crystal; DSC
[2] = for vapor or sublimation pressure: Closed cell (Static) method
[3] = molar heat capacity at constant pressure; conditions: 101.33 kPa
[4] = molar enthalpy of vaporization or sublimation; conditions: 298.15 K, Static calorimetry

CC1=C[C@H](O)[C@H]2C[C@@H]1C2(C)C [(-)-cis-verbenol]
Conditions | Molar enthalpy of transition or fusion [kJ/mol]
[1] | 17.5

[2]
Conditions | Normal melting temperature, Crystal [°C] | vapor or sublimation pressure, 273.15 K | vapor or sublimation pressure, 278.15 K | vapor or sublimation pressure, 283.15 K [kPa] | vapor or sublimation pressure, 288.15 K | vapor or sublimation pressure, 293.15 K | vapor or sublimation pressure, 298.15 K | vapor or sublimation pressure, 303.15 K [kPa] | vapor or sublimation pressure, 308.15 K | vapor or sublimation pressure, 313.15 K
Crystal | – | 0.00025 kPa and 0.00026 kPa | 0.00049 kPa and 0.0005 kPa | 0.00092 | 0.00169 kPa and 0.00168 kPa | 0.003 kPa and 0.00301 kPa | 0.00523 kPa and 0.00528 kPa and 0.00529 kPa | 0.00906 | 0.01518 kPa and 0.01523 kPa and 0.01524 kPa | 0.02515 kPa and 0.02516 kPa and 0.02517 kPa
DTA | 70.5 | – | – | – | – | – | – | – | – | –

[3]
Conditions | molar heat capacity at constant pressure [J/K/mol]
273.4 K, Crystal, Large sample (1 g) DSC | 217.51
278.5 K, Crystal, Large sample (1 g) DSC | 222.58
283.6 K, Crystal, Large sample (1 g) DSC | 228.98
288.7 K, Crystal, Large sample (1 g) DSC | 235.38
293.8 K, Crystal, Large sample (1 g) DSC | 242.28
298.15 K, Crystal, Drop calorimetry | 233.55
298.9 K, Crystal, Large sample (1 g) DSC | 250.18
304 K, Crystal, Large sample (1 g) DSC | 259
309.1 K, Crystal, Large sample (1 g) DSC | 269.14
344.9 K, Liquid, Large sample (1 g) DSC | 372.99
350 K, Liquid, Large sample (1 g) DSC | 377.14
355.1 K, Liquid, Large sample (1 g) DSC | 381.47

Conditions | molar enthalpy [kJ/mol]
[4], Crystal | 80

C=C1CC[C@H]2C[C@@H]1C2(C)C [(1S,5S)-6,6-dimethyl-2-methylenebicyclo[3.1.1]heptane]
[2], Liquid
Conditions | vapor or sublimation pressure
248.13 K | 0.00844 kPa and 0.00845 kPa
253.14 K | 0.01345 kPa and 0.01346 kPa
258.15 K | 0.021 kPa and 0.02101 kPa
263.15 K | 0.03214 kPa and 0.03213 kPa
268.15 K | 0.04828 kPa and 0.04829 kPa
273.65 K | 0.07411 kPa and 0.07418 kPa
278.15 K | 0.1037 kPa and 0.1038 kPa
283.15 K | 0.1485 kPa
288.15 K | 0.2093 kPa and 0.2094 kPa and 0.2095 kPa
293.15 K | 0.291 kPa and 0.2911 kPa
298.15 K | 0.4 kPa
303.15 K | 0.5419 kPa and 0.542 kPa
308.15 K | 0.7254 kPa and 0.7255 kPa and 0.7256 kPa

[3], Liquid, Large sample (1 g) DSC
Conditions | molar heat capacity at constant pressure [J/K/mol]
273.4 K | 230.06
278.5 K | 232.64
283.6 K | 235.22
288.7 K | 237.96
293.8 K | 240.62
298.9 K | 243.36
304 K | 245.94
309.1 K | 248.19
314.2 K | 251.01
319.4 K | 254.17
324.5 K | 256.75
329.6 K | 260.08
334.7 K | 262.9
339.8 K | 266.4
344.9 K | 269.47
350 K | 272.05
355.1 K | 275.21

CC1=CC[C@H]2C[C@@H]1C2(C)C [(S)-2-pinene]
[2], Liquid
Conditions | vapor or sublimation pressure
238.19 K | 0.0053 kPa
243.2 K | 0.00874 kPa and 0.00875 kPa
253.19 K | 0.02209 kPa and 0.0221 kPa
258.2 K | 0.03413 kPa and 0.03415 kPa and 0.03412 kPa
263.19 K | 0.05172 kPa
268.19 K | 0.07688 kPa and 0.07689 kPa and 0.07691 kPa
273.65 K | 0.1164 kPa
273.66 K | 0.1164 kPa
278.16 K | 0.1615 kPa and 0.1614 kPa
283.15 K | 0.2288 kPa
288.15 K | 0.3195 kPa and 0.3196 kPa
293.15 K | 0.4403 kPa and 0.4404 kPa
298.15 K | 0.599 kPa and 0.5991 kPa
303.15 K | 0.8053 kPa
303.16 K | 0.8056 kPa and 0.8057 kPa
308.17 K | 1.071 kPa
308.18 K | 1.071 kPa

[3], Liquid, Large sample (1 g) DSC
Conditions | molar heat capacity at constant pressure [J/K/mol]
273.4 K | 239.62
278.5 K | 242.37
283.6 K | 244.61
288.7 K | 247.11
293.8 K | 249.27
298.9 K | 253.09
304 K | 255.34
309.1 K | 257.83
314.2 K | 260.41
319.4 K | 262.57
324.5 K | 266.15
329.6 K | 268.97
334.7 K | 272.3
339.8 K | 274.88
344.9 K | 278.7
350 K | 282.11
355.1 K | 284.44

CC1=CC(=O)[C@H]2C[C@@H]1C2(C)C [(-)-verbenone]
[2], Liquid
Conditions | vapor or sublimation pressure
273.65 K | 0.00181 kPa and 0.00183 kPa
273.66 K | 0.00181 kPa
278.15 K | 0.00278 kPa
278.16 K | 0.00276 kPa and 0.00277 kPa
283.15 K | 0.00436 kPa and 0.00437 kPa
288.15 K | 0.00676 kPa and 0.00678 kPa and 0.00675 kPa
293.15 K | 0.01031 kPa
293.16 K | 0.01032 kPa and 0.01035 kPa
298.15 K | 0.01545 kPa and 0.01546 kPa and 0.01547 kPa
303.15 K | 0.02273 kPa and 0.02278 kPa and 0.02281 kPa
308.16 K | 0.03304 kPa and 0.03307 kPa and 0.03309 kPa

[3], Liquid
Conditions | molar heat capacity at constant pressure [J/K/mol]
273.4 K, Large sample (1 g) DSC | 258.83
278.5 K, Large sample (1 g) DSC | 260.99
283.6 K, Large sample (1 g) DSC | 262.32
288.7 K, Large sample (1 g) DSC | 264.07
293.8 K, Large sample (1 g) DSC | 266.73
298.15 K, Drop calorimetry | 270.55
298.9 K, Large sample (1 g) DSC | 269.39
304 K, Large sample (1 g) DSC | 270.47
309.1 K, Large sample (1 g) DSC | 273.05
314.2 K, Large sample (1 g) DSC | 275.62
319.4 K, Large sample (1 g) DSC | 276.87
324.5 K, Large sample (1 g) DSC | 279.45
329.6 K, Large sample (1 g) DSC | 281.69
334.7 K, Large sample (1 g) DSC | 284.69
339.8 K, Large sample (1 g) DSC | 286.93
344.9 K, Large sample (1 g) DSC | 289.68
350 K, Large sample (1 g) DSC | 292
355.1 K, Large sample (1 g) DSC | 294.42

Conditions | molar enthalpy [kJ/mol]
[4], Liquid | 58.9
